According to patent US20090203718A1, “CANCER TREATMENT METHOD” (SmithKline Beecham (Cork) Ltd., priority 2006, published 2009):

Columns and labels:
Assay type in all cases: cell-based, human
A549 cells [1] = experiment: Cell proliferation, BrdU ELISA and Celltiter Glo (FIG. 1)
Colo205 cells [2] = experiment: Cell proliferation, BrdU ELISA and Celltiter Glo (FIG. 2)
Description: (§1) Colo205 and MDA-MB-468 cells were grown in DMEM supplemented with 25 mM HEPES, 10 mM glutamine, 4.5 g/L d-glucose, and 10% fetal bovine serum. Assays were performed in 96 well microtiter plates with optimum seeding densities for each cell line.
(§2) Cell proliferation was measured using the Celltiter Glo® Luminescent Cell Viability Assay available from Promega Corporation and the Roche BrdU Cell Proliferation ELISA assay.
(§3) Cell death was measured using the Roche Cell Death ELISA^Plus kit and Promega Apo-ONE™ Homogeneous Caspase-3/7 Assay. Total cell number was measured using the Celltiter Glo® Luminescent Cell Viability Assay and cell proliferation was measured with the Roche BrdU Cell Proliferation ELISA assay.

MDA-MB-468 cells [3] = experiment: Cell proliferation, BrdU ELISA and Celltiter Glo (FIG. 3)
Description: as §1, §2, §3

A549 cells [4] = experiment: Apoptosis, Roche Cell Death ELISA and Caspase-3/7 (FIG. 1); conditions: for apoptosis: agent alone, 24 h
Description: as §1, with “A549 cells were grown in RPMI-1640 supplemented with 25 mM HEPES, 10 mM glutamine and 10% fetal bovine serum and maintained at 37° C. and 5% CO2 in a humid incubator. Colo205” for “Colo205”
(§4) Apoptosis was measured using the Roche Cell Death ELISA^Plus kit (catalog 1 774 425) which detects fragmented nucleosomal DNA that is generated during apoptosis.
as §3

Colo205 cells [5] = experiment: Apoptosis, Roche Cell Death ELISA and Caspase-3/7 (FIG. 2); conditions: for apoptosis: agent alone, 24 h
Description: as §1, with “A549 cells were grown in RPMI-1640 supplemented with 25 mM HEPES, 10 mM glutamine and 10% fetal bovine serum and maintained at 37° C. and 5% CO2 in a humid incubator. Colo205” for “Colo205”
as §4, §3

MDA-MB-468 cells [6] = experiment: Apoptosis, Roche Cell Death ELISA and Caspase-3/7 (FIG. 3); conditions: for apoptosis: agent alone, 24 h
Description: as §1, with “A549 cells were grown in RPMI-1640 supplemented with 25 mM HEPES, 10 mM glutamine and 10% fetal bovine serum and maintained at 37° C. and 5% CO2 in a humid incubator. Colo205” for “Colo205”
as §4, §3

[7] = 1:1 molar ratio with GW572016, 24 h

Nc1ncnc2c1c(-c1cccc(OCc3ccccc3)c1)cn2[C@H]1C[C@@H](CN2CCCC2)C1 [GSK621659A]
cell proliferation, combination versus either agent alone (A549 cells [1]; [7]): more effective than either agent alone
cell proliferation (A549 cells [1]; agent alone, 24 h): decreased cell proliferation
cell proliferation, combination versus either agent alone (Colo205 cells [2]; [7]): more effective than either agent alone
cell proliferation (Colo205 cells [2]; agent alone, 24 h): decreased cell proliferation
cell proliferation, combination versus either agent alone (MDA-MB-468 cells [3]; [7]): more effective than either agent alone
cell proliferation (MDA-MB-468 cells [3]; agent alone, 24 h): decreased cell proliferation
apoptosis, combination versus either agent alone (A549 cells [4]; [7]): more effective than either agent alone
apoptosis (A549 cells [4]): increased apoptosis
apoptosis, combination versus either agent alone (Colo205 cells [5]; [7]): more effective than either agent alone
apoptosis (Colo205 cells [5]): increased apoptosis
apoptosis, combination versus either agent alone (MDA-MB-468 cells [6]; [7]): more effective than either agent alone
apoptosis (MDA-MB-468 cells [6]): increased apoptosis

CS(=O)(=O)CCNCc1ccc(-c2ccc3ncnc(Nc4ccc(OCc5cccc(F)c5)c(Cl)c4)c3c2)o1 [GW572016, N-{3-Chloro-4-[(3-fluorobenzyl)oxy]phenyl}-6-[5-({[2-(methanesulphonyl)ethyl]amino}methyl)-2-furyl]-4-quinazolinamine ditosylate monohydrate]
apoptosis (A549 cells [4]): increased apoptosis
apoptosis (Colo205 cells [5]): increased apoptosis
apoptosis (MDA-MB-468 cells [6]): increased apoptosis
